The values that follow come from ChEMBL document CHEMBL1201862, “PubChem BioAssay data set” (2004).

The structures appear in SMILES notation.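 Following 48 hours of exposure in 96-well plates, responses at five concentrations were used to interpolate endpoints linearly. The concentration for 50% growth inhibition is given as GI50.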 Active and inactive are the calls of the source. Cut-off read from the data, not from the text of the source: active = GI50 up to about 1.1 µM and inactive = higher.

Test systems include OVCAR-3; SK-OV-3; COLO 205; MDA-MB-231; BT-549; SN12C; T47D; PC-3; SF-268; MOLT-4; LOX IMVI; K562; MDA-MB-435; OVCAR-8; SF-539; HCT-15; SR; NCI-H460; MCF7; SK-MEL-28.
Holding throughout (experiment): NCI tumour cell line growth inhibition, 48 h

On to `CC1(C)CC(=O)C2=C(C1)c1c(ccc3ccccc13)NC2c1cn(Cc2ccc(Cl)cc2)c2ccccc12` (configuration not stated), for which the GI50 with OVCAR-3 is 18.7 µM (inactive); in the assay with SK-OV-3 it was > 100 µM (inactive); in the assay on COLO 205 it was > 100 µM (inactive); in the assay with MDA-MB-231, > 100 µM (inactive); in the assay with BT-549 it was 95.9 µM (inactive); in the assay on SN12C it was > 100 µM (inactive). The GI50 in the assay on T47D was 7.19 µM (inactive); in the assay on PC-3, > 100 µM (inactive); in the assay with SF-268, > 100 µM (inactive); with MOLT-4, 58.1 µM (inactive); in the assay with LOX IMVI, 38.7 µM (inactive); in the assay with K562 it was 50.9 µM (inactive). Besides, the GI50 is > 100 µM (inactive) in the assay with MDA-MB-435; > 100 µM (inactive) with OVCAR-8; > 100 µM (inactive) with SF-539; above 100 µM with HCT-15; 11.2 µM (inactive) with SR; 23.9 µM (inactive) with NCI-H460. Also, the GI50 in the assay with MCF7 was > 100 µM (inactive).

For the compound `C#CCOC(=O)[C@@H](C)c1ccc2cc(OC)ccc2c1`, the GI50 in the assay with SK-OV-3 was > 100 µM (inactive); in the assay with COLO 205, > 100 µM (inactive); in the assay on MDA-MB-231, > 100 µM (inactive); with BT-549, 54.5 µM (inactive); with SN12C, > 100 µM (inactive); in the assay on T47D it was > 100 µM (inactive). The GI50 with PC-3 is 82.6 µM (inactive); with SF-268, > 100 µM (inactive); with MOLT-4 it was 32.1 µM (inactive); in the assay with LOX IMVI, 70.1 µM (inactive); with K562, 44.8 µM (inactive); in the assay with MDA-MB-435 it was 66.4 µM (inactive). Further, the GI50 in the assay with OVCAR-8 is > 100 µM (inactive); in the assay on SF-539, 76.9 µM (inactive); in the assay with HCT-15 it was 28.4 µM; in the assay with SR, 17.3 µM (inactive); with NCI-H460, > 100 µM (inactive); in the assay on MCF7, 63.8 µM (inactive).

Consider `COc1ccc(/C=C2\N=C(N3CCCCC3)NC2=O)cc1`, for which the GI50 in the assay with OVCAR-3, in the assay with SK-OV-3, in the assay with SK-MEL-28, in the assay on COLO 205, in the assay with MDA-MB-231 and in the assay with BT-549 was > 100 µM (inactive) throughout. Besides, the GI50 is > 100 µM (inactive) in the assay with SN12C; 34.5 µM (inactive) with T47D; > 100 µM (inactive) with PC-3; > 100 µM (inactive) in the assay on SF-268; > 100 µM (inactive) with MOLT-4; 95.1 µM (inactive) in the assay on LOX IMVI. The GI50 was > 100 µM (inactive) in the assay with MDA-MB-435; > 100 µM (inactive) in the assay with OVCAR-8; 54 µM (inactive) in the assay with SF-539; above 100 µM with HCT-15; 72.1 µM (inactive) in the assay on SR; > 100 µM (inactive) with MCF7.

As for `Cc1ccc(O)c(C2=NNC(c3cccc(Cl)c3)C2)c1` (configuration not stated), the GI50 is 51.5 µM (inactive) with OVCAR-3; 35.9 µM (inactive) with SK-OV-3; > 100 µM (inactive) with COLO 205; 61.5 µM (inactive) in the assay with MDA-MB-231; > 100 µM (inactive) in the assay with BT-549; 37.2 µM (inactive) in the assay with SN12C. Also, the GI50 in the assay on T47D is 41.4 µM (inactive); with PC-3 it was 32.3 µM (inactive); with SF-268, 32.9 µM (inactive); in the assay with MOLT-4, 34 µM (inactive); in the assay on LOX IMVI it was 31.6 µM (inactive); in the assay on K562, 36.4 µM (inactive). For the same compound, the GI50 in the assay on MDA-MB-435 was 19 µM (inactive); in the assay on OVCAR-8 it was 56.2 µM (inactive); in the assay on SF-539, 66.5 µM (inactive); with HCT-15, 8.09 µM; in the assay with SR, 28.9 µM (inactive); with NCI-H460, 19.6 µM (inactive). For the same compound, the GI50 in the assay on MCF7 is 23.2 µM (inactive).

Consider `CC1(C)C(C(=O)OC(C#N)c2cccc(OCC(=O)OCc3ccccc3)c2)C1(C)C` (configuration not stated), for which the GI50 was > 100 µM (inactive) in the assay with OVCAR-3; > 100 µM (inactive) with SK-OV-3; 63.2 µM (inactive) in the assay on SK-MEL-28; > 100 µM (inactive) in the assay with COLO 205; 66.1 µM (inactive) in the assay on MDA-MB-231; > 100 µM (inactive) with BT-549. Also, the GI50 is > 100 µM (inactive) in the assay with SN12C; 45.8 µM (inactive) in the assay with T47D; > 100 µM (inactive) in the assay on PC-3; > 100 µM (inactive) with SF-268; 18 µM (inactive) with MOLT-4; 95.7 µM (inactive) with LOX IMVI. Besides, the GI50 in the assay with K562 was 2.36 µM (inactive); in the assay with MDA-MB-435, > 100 µM (inactive); with OVCAR-8 it was 35.2 µM (inactive); in the assay on SF-539, > 100 µM (inactive); with HCT-15, above 100 µM; with SR, 0.251 µM (active). In addition, the GI50 was > 100 µM (inactive) in the assay with NCI-H460 and 53 µM (inactive) in the assay on MCF7.

With `O=C(CN1CCCC1)Nc1ccc2c(c1)C1Oc3ccccc3CC1CO2` (configuration not stated), the GI50 in the assay with OVCAR-3 was 57.5 µM (inactive); in the assay with SK-OV-3, > 100 µM (inactive); with COLO 205, 14 µM (inactive); in the assay with MDA-MB-231, 22.9 µM (inactive); in the assay with BT-549, 19.4 µM (inactive); in the assay on SN12C, > 100 µM (inactive). Moreover, the GI50 was 40.1 µM (inactive) in the assay on T47D; 24.8 µM (inactive) in the assay on PC-3; 67 µM (inactive) in the assay with SF-268; 31.4 µM (inactive) in the assay with MOLT-4; 21.4 µM (inactive) in the assay on LOX IMVI; 38.6 µM (inactive) with K562. In addition, the GI50 with MDA-MB-435 was 22.2 µM (inactive); in the assay with OVCAR-8 it was 97.5 µM (inactive); in the assay on SF-539, 18.8 µM (inactive); in the assay with HCT-15, 18.6 µM; in the assay on SR it was 33.3 µM (inactive); with MCF7 it was 17.3 µM (inactive).

For the compound `COC(=O)C1(Cc2ccccc2)Cc2ccc3c(c2C1=O)CCC3` (configuration not stated), the GI50 was > 49 µM (inactive) with OVCAR-3; > 80.4 µM (inactive) in the assay with SK-OV-3; > 70.6 µM (inactive) in the assay on SK-MEL-28; 27.8 µM (inactive) with COLO 205; 33.4 µM (inactive) in the assay on MDA-MB-231; 2.24 µM (inactive) in the assay with BT-549. Besides, the GI50 with SN12C is 44.4 µM (inactive); with T47D, 11.5 µM (inactive); with PC-3 it was 26.1 µM (inactive); in the assay on SF-268, > 66.5 µM (inactive); in the assay with MOLT-4 it was 20.6 µM (inactive); in the assay on LOX IMVI it was 39.3 µM (inactive). Also, the GI50 in the assay on K562 is 30.6 µM (inactive); in the assay with MDA-MB-435, 24.9 µM (inactive); in the assay with OVCAR-8 it was 59.6 µM (inactive); in the assay on SF-539, > 48.9 µM (inactive); in the assay with HCT-15, 35 µM; in the assay with SR, 28.7 µM (inactive). Moreover, the GI50 in the assay on NCI-H460 is 60.8 µM (inactive); in the assay on MCF7, 23.1 µM (inactive).

For `O=C(Cc1ccccc1)NCCc1ccc(O)c(O)c1`, the GI50 with OVCAR-3 was 35 µM (inactive); in the assay with SK-OV-3, > 100 µM (inactive); in the assay with SK-MEL-28 it was > 100 µM (inactive); with COLO 205 it was > 100 µM (inactive); with MDA-MB-231, 37.2 µM (inactive); in the assay with BT-549 it was 82.8 µM (inactive). Also, the GI50 in the assay with SN12C was 95.9 µM (inactive); in the assay on T47D it was > 100 µM (inactive); in the assay on PC-3 it was > 100 µM (inactive); in the assay with SF-268 it was 63.1 µM (inactive); in the assay on MOLT-4, 16.6 µM (inactive); in the assay with LOX IMVI it was 44.7 µM (inactive). For the same compound, the GI50 is 17.9 µM (inactive) with K562; 17.9 µM (inactive) in the assay on MDA-MB-435; > 100 µM (inactive) in the assay with OVCAR-8; > 100 µM (inactive) in the assay with SF-539; 54.1 µM in the assay on HCT-15; 23.3 µM (inactive) with SR. Besides, the GI50 in the assay with NCI-H460 and with MCF7 was > 100 µM (inactive) each time.

On to `COC(=O)CCC12CCC(O1)c1ccccc12` (configuration not stated), for which the GI50 in the assay with SK-OV-3, in the assay with SK-MEL-28, with COLO 205, in the assay with MDA-MB-231, with BT-549 and in the assay on SN12C was > 100 µM (inactive) in each case. The GI50 in the assay with T47D, with PC-3, in the assay on MOLT-4, with LOX IMVI, in the assay with K562 and in the assay on MDA-MB-435 was > 100 µM (inactive) in each case. Besides, the GI50 in the assay with OVCAR-8 is > 100 µM (inactive); in the assay on SF-539, > 100 µM (inactive); in the assay on HCT-15, above 100 µM; in the assay on SR, > 100 µM (inactive); in the assay on NCI-H460, > 100 µM (inactive); with MCF7, > 100 µM (inactive).

As for `COc1ccc(C23OCC(Cc4cc(OC)c(OC)cc42)C3COC(C)=O)cc1OC` (configuration not stated), the GI50 in the assay with OVCAR-3, in the assay on SK-OV-3, in the assay on SK-MEL-28, in the assay on COLO 205, in the assay with MDA-MB-231 and in the assay with BT-549 was > 100 µM (inactive) in each case. Also, the GI50 with T47D, with PC-3, in the assay with SF-268, in the assay with MOLT-4, in the assay with LOX IMVI and with K562 was > 100 µM (inactive) throughout. Besides, the GI50 is > 100 µM (inactive) in the assay on MDA-MB-435; > 100 µM (inactive) in the assay with SF-539; above 100 µM in the assay on HCT-15; 27.4 µM (inactive) in the assay with SR; > 100 µM (inactive) in the assay with NCI-H460; > 100 µM (inactive) with MCF7.

As for `CC[C@H](C)[C@@H]([C@@H](CC(=O)N1CCC[C@H]1[C@H](OC)[C@@H](C)C(=O)NCCc1ccccc1)OC)N(C)C(=O)C(NC(=O)[C@H](C(C)C)N(C)C)C(C)C` (some centres not stated), the GI50 with OVCAR-3 is 4.09e-05 µM (active); with SK-MEL-28, > 10 µM (inactive); with COLO 205, 9.16e-05 µM (active); in the assay on MDA-MB-231 it was 0.000526 µM (active); in the assay with BT-549, 0.000588 µM (active); in the assay with SN12C, 0.000361 µM (active). Further, the GI50 was > 10 µM (inactive) in the assay on T47D; 0.000119 µM (active) in the assay with PC-3; 0.000658 µM (active) in the assay with SF-268; 0.000132 µM (active) with MOLT-4; 0.000299 µM (active) with LOX IMVI; 6.68e-05 µM (active) with K562. The GI50 in the assay on MDA-MB-435 is 3.18e-05 µM (active); with OVCAR-8, 0.000333 µM (active); in the assay on SF-539, 0.000232 µM (active); in the assay with HCT-15, 0.00201 µM; with SR it was 2.57e-05 µM (active); in the assay on NCI-H460, 0.000211 µM (active). Besides, the GI50 with MCF7 was 4.54e-05 µM (active).
